Laboratory results as given in article PMC7993387, “The preclinical inhibitor GS441524 in combination with GC376 efficaciously inhibited the proliferation of SARS-CoV-2 in the mouse respiratory tract” (Emerging Microbes & Infections, 2021).

Key:
[1] = Cell viability (Cell Titer-Glo) in Vero E6 cells; type: cell-based; settings: African green monkey
Procedure: Cell viability was determined using the Cell Titer-Glo kit (Promega, Madison, WI, USA) following the manufacturer’s instructions. Briefly, Vero E6 cells were seeded in 96-well plates with opaque walls. […] Cell Titer-Glo reagent was added to each well, and luminescence was measured using a GloMax 96 Microplate Luminometer (Promega, Madison, WI, USA).

[2] = Single-dose pharmacokinetics in BALB/c mice; type: in vivo; settings: for AUC(0-t) / CL/F / Cmax / Tmax / Vd/F / half-life / MRT last / MRT inf: BALB/c, mouse, plasma; for MRT last: read-out: MRT0−t; for MRT inf: read-out: MRT0−∞
Procedure: (§1) Healthy SPF BALB/c mice (7-8 weeks) and SD rats (4-6 weeks) were used in a single-dose PK study. […] The blood was collected at 0, 0.083, 0.25, 0.5, 1, 2, 4, 8, 12 and 24 h and placed in a precooled polypropylene centrifuge tube containing 3.0 µl of 40% EDTAK2. Then, the whole blood was centrifuged at 7800 g/min for 10 min at 4°C. Plasma was collected and stored in a freezer at −80°C. Plasma drug concentration was analyzed using LC-MS/MS. Pharmacokinetic parameters were calculated using WinNonlin software (version 6.4), and a non-atrioventricular model was used for data fitting. The data were analyzed using Microsoft Excel 2016 and GraphPad Prism 7.0.

SARS-CoV-2 (HRB26M) = assay: microbe, parasite or virus in culture; type: cell-based; settings: Severe acute respiratory syndrome coronavirus 2, Vero C1008, 24 h, combination molar ratio 1:1, read-out: EC50 (50% inhibitory concentration)
[3] = Single-dose pharmacokinetics in SD rats; type: in vivo; settings: for AUC(0-t) / Tmax / Vd/F / CL/F / Cmax / half-life / MRT last / MRT inf: Sprague-Dawley, rat, plasma, im; for MRT last: read-out: MRT0−t; for MRT inf: read-out: MRT0−∞
Procedure: as §1

[4] = im, 33.5 mg/kg, BALB/c mice, i.m., combined (GC376 55.5 + GS441524 33.5 mg/kg)
[5] = im, BALB/c mice, alone (GC376 111 mg/kg; GS441524 67 mg/kg)
[6] = im, BALB/c mice, i.m., alone (GC376 111 mg/kg; GS441524 67 mg/kg)
[7] = 33.5 mg/kg, i.m., combined (GC376 55.5 + GS441524 33.5 mg/kg)
[8] = alone (GC376 111 mg/kg; GS441524 67 mg/kg)
[9] = im, BALB/c mice, i.m., combined (GC376 55.5 + GS441524 33.5 mg/kg)
[10] = combined (GC376 55.5 + GS441524 33.5 mg/kg)

SMILES: N#C[C@@]1(c2ccc3c(N)ncnn23)O[C@H](CO)[C@@H](O)[C@H]1O [GS441524]
- CC50 at 24 h [1]: > 250 µM
- AUC0−t of GS441524 relative to that of GC376 ([2]; BALB/c mice, i.m., alone): approximately 1.9 fold
- AUC(0-t) [2, 4]: 49000 ± 11700 ng·h/mL
- CL/F [2, 4]: 11.8 mL/min/kg
- Cmax [2, 4]: 16000 ± 2200 ng/mL
- Tmax [2, 4]: 0.55 ± 0.24 h
- Vd/F [2, 4]: 1.68 ± 0.282 L/kg
- half-life [2, 4]: 1.67 ± 0.24 h
- MRT last [2, 4]: 2.37 ± 0.73 h
- MRT inf [2, 4]: 2.48 ± 0.71 h
- AUC(0-t) [2, 5]: 107000 ± 16800 ng·h/mL
- CL/F [2, 5]: 10.7 mL/min/kg
- Cmax [2, 5]: 39600 ± 2930 ng/mL
- Tmax [2, 5]: 0.8 ± 0.24 h
- Vd/F [2, 5]: 1.37 ± 0.129 L/kg
- half-life [2, 5]: 1.51 ± 0.16 h
- MRT last [2, 6]: 2.07 ± 0.42 h
- MRT inf [2, 6]: 2.15 ± 0.42 h
- EC50 (SARS-CoV-2 (HRB26M)): 5.05 ± 2.12 µM
- AUC(0-t) ([3]; 33.5 mg/kg): 88300 ± 26800 ng·h/mL
- Tmax ([3]; 33.5 mg/kg): 3.4 ± 1.2 h
- Vd/F ([3]; 33.5 mg/kg): 2.71 ± 1.25 L/kg
- CL/F [3, 7]: 6.6 mL/min/kg
- Cmax [3, 7]: 10500 ± 1850 ng/mL
- half-life [3, 7]: 5.13 ± 2.56 h
- MRT last [3, 7]: 6.03 ± 1.37 h
- MRT inf [3, 7]: 7.57 ± 2.93 h
- AUC(0-t) [3, 8]: 183000 ± 64400 ng·h/mL
- CL/F [3, 8]: 7.05 mL/min/kg
- Cmax [3, 8]: 31000 ± 8400 ng/mL
- Tmax [3, 8]: 2 ± 1.1 h
- Vd/F [3, 8]: 2.25 ± 0.946 L/kg
- half-life [3, 8]: 3.8 ± 1.17 h
- MRT last [3, 8]: 4.5 ± 1.11 h
- MRT inf [3, 8]: 4.78 ± 1.49 h
- AUC0−t of GS441524, fold higher than GC376 ([3]; i.m., alone): approximately 2.0 fold

SMILES: CC(C)CC(NC(=O)OCc1ccccc1)C(=O)NC(CC1CCNC1=O)C(O)S(=O)(=O)O (centres unmarked) [GC376]
- CC50 at 24 h [1]: > 250 µM
- Cmax of GC376 relative to that of GS441524 ([2]; BALB/c mice, i.m., alone): approximately 1.2 fold
- clearance rate (CL/F) of GC376 relative to that of GS441524 ([2]; BALB/c mice, i.m., alone): approximately 3.1 fold
- half-life ([2]; (GC376 55.5 + GS441524 33.5 mg/kg)): 0.81 ± 0.22 h
- AUC(0-t) [2, 5]: 55300 ± 11300 ng·h/mL
- CL/F [2, 5]: 33.1 mL/min/kg
- Cmax [2, 5]: 46700 ± 10700 ng/mL
- Tmax [2, 5]: 0.22 ± 0.07 h
- Vd/F [2, 5]: 2.87 ± 0.432 L/kg
- half-life [2, 5]: 1.12 ± 0.53 h
- MRT last [2, 6]: 1.05 ± 0.12 h
- MRT inf [2, 6]: 1.38 ± 0.59 h
- AUC(0-t) [2, 9]: 27800 ± 4410 ng·h/mL
- CL/F [2, 9]: 33.9 mL/min/kg
- Cmax [2, 9]: 30040 ± 220 ng/mL
- Tmax [2, 9]: 0.25 h
- Vd/F [2, 9]: 2.34 ± 0.617 L/kg
- MRT last [2, 9]: 0.79 ± 0.09 h
- MRT inf [2, 9]: 0.88 ± 0.12 h
- EC50 (SARS-CoV-2 (HRB26M)): 0.881 ± 0.109 µM
- AUC(0-t) [3]: 42400 ± 6440 ng·h/mL
- Tmax [3]: 1.4 ± 0.49 h
- Vd/F [3]: 5.17 ± 1.87 L/kg
- AUC(0-t) [3, 8]: 92100 ± 9990 ng·h/mL
- CL/F [3, 8]: 20.1 mL/min/kg
- Cmax [3, 8]: 12600 ± 1900 ng/mL
- Tmax [3, 8]: 1.3 ± 0.6 h
- Vd/F [3, 8]: 6.75 ± 1.04 L/kg
- half-life [3, 8]: 3.87 ± 0.49 h
- MRT last [3, 8]: 5.83 ± 0.74 h
- MRT inf [3, 8]: 6.06 ± 0.64 h
- CL/F [3, 10]: 21.9 mL/min/kg
- Cmax [3, 10]: 11800 ± 1630 ng/mL
- half-life [3, 10]: 2.75 ± 0.91 h
- MRT last [3, 10]: 2.97 ± 0.41 h
- MRT inf [3, 10]: 3.32 ± 0.57 h
- Cmax of GC376, fold lower than GS441524 ([3]; i.m., alone): approximately 2.5 fold
- clearance rate (CL/F) of GC376 relative to that of GS441524 ([3]; i.m., alone): approximately 2.9 fold
